Article PMC12152147, “DDB1 engagement defines the selectivity of S656 analogs for cyclin K degradation over CDK inhibition” (EMBO Reports, 2025)
“And” between values parts separate entries of the source, which are not always exact repeats. Identical values can stand only once. Like-named read-outs stand apart in the source and are kept apart here.

Columns and labels:
[1] = test system: primary AML specimens; assay: Dose-response assays in primary AML specimens (6 days, CellTiterGlo); assay type: cell-based, human; details: 6 days, read-out: IC50
How it was run: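 Primary AML cells in IMDM/15% BIT with SCF, FLT3L, IL3, G-CSF, SR1 and UM729 were exposed to 8-point 1:4 dilutions (10 μM to 0.5 nM) for 6 days. Viability came from CellTiterGlo luminescence, with % inhibition versus DMSO (0.1%) fitted by nonlinear regression.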

[2] = test system: OCI-AML5 cells; assay: Dose-response proliferative assay in OCI-AML5 (4 days, CellTiterGlo); assay type: cell-based, H. sapiens; details: OCI-AML5 cells; read-out: IC50 in AML5
How it was run: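 Viability assessed after 4 days of compound exposure at 37 °C, 5% CO2. Compounds tested as 8 dilutions (1:4, 10 μM to 0.5 nM) on 300 OCI-AML5 cells/well grown in αMEM with 10% heat-inactivated FBS and 10 ng/mL GM-CSF.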

[3] = test system: cyclin KeGFP; assay: Cyclin KeGFP reporter system (eGFP/mCherry MFI by flow cytometry);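 on % degradation cyclin K-eGFP: 10 μM compound for 3 h relative to DMSO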; assay type: cell-based, H. sapiens
How it was run: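 Degradation read as eGFP-to-mCherry MFI ratio relative to DMSO controls, from flow cytometry of the selected G7 clone of OCI-AML5 cells transduced with the cyclin KeGFP reporter.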

[4] = target: T1, CDK12/Cyclin K (Homo sapiens, UniProt Q9NYV4); assay: CDK12/CyclinK in vitro kinase assay (BPS kit, Kinase Glo MAX); assay type: biochemical
T1 construct: purchased BPS Bioscience 78298
Procedure: (§1) Kinase activity was assessed using the kinase assay kits from BPS Bioscience for CDK1, CDK9 and CDK12 with Kinase Glo MAX in duplicates. Compounds were tested at a single concentration of 1 μM for CDK1 and CDK9 activity, and in a dilution ranging from 0.64 nM to 50 μM for CDK12 activity. Chemiluminescence was read using the Neo Synergy BioTek plate reader.

[5] = target: T2, CDK1 (Homo sapiens, UniProt P06493); assay: CDK1 in vitro kinase activity, single concentration 1 μM; assay type: biochemical; details: single concentration 1 μM
T2 construct: purchased BPS Bioscience 79597
Procedure: as §1

[6] = target: T3, CDK9/CyclinT (Homo sapiens, UniProt P50750); assay: CDK9/CyclinT in vitro kinase activity, single concentration 1 μM; assay type: biochemical; details: single concentration 1 μM
T3 construct: purchased BPS Bioscience 79628
Procedure: as §1

[7] = test system: OCI-AML5 cells expressing shRNAs targeting CDK1, 2, 4, 7, 9, cyclin K; assay: Dose response in OCI-AML5 expressing shRNAs targeting CDK1, 2, 4, 7, 9, cyclin K or control; assay type: cell-based, H. sapiens; details: for IC50: OCI-AML5, 4 days
[8] = test system: OCI-AML5 cells expressing shRNA targeting CUL4A or CUL4B; assay: Dose response in OCI-AML5 expressing shRNAs targeting CUL4A, CUL4B or control; assay type: cell-based, H. sapiens; details: ratio of IC50 in shCUL4A vs shCTRL OCI-AML5 cells

T1 sequence (Q9NYV4 whole entry): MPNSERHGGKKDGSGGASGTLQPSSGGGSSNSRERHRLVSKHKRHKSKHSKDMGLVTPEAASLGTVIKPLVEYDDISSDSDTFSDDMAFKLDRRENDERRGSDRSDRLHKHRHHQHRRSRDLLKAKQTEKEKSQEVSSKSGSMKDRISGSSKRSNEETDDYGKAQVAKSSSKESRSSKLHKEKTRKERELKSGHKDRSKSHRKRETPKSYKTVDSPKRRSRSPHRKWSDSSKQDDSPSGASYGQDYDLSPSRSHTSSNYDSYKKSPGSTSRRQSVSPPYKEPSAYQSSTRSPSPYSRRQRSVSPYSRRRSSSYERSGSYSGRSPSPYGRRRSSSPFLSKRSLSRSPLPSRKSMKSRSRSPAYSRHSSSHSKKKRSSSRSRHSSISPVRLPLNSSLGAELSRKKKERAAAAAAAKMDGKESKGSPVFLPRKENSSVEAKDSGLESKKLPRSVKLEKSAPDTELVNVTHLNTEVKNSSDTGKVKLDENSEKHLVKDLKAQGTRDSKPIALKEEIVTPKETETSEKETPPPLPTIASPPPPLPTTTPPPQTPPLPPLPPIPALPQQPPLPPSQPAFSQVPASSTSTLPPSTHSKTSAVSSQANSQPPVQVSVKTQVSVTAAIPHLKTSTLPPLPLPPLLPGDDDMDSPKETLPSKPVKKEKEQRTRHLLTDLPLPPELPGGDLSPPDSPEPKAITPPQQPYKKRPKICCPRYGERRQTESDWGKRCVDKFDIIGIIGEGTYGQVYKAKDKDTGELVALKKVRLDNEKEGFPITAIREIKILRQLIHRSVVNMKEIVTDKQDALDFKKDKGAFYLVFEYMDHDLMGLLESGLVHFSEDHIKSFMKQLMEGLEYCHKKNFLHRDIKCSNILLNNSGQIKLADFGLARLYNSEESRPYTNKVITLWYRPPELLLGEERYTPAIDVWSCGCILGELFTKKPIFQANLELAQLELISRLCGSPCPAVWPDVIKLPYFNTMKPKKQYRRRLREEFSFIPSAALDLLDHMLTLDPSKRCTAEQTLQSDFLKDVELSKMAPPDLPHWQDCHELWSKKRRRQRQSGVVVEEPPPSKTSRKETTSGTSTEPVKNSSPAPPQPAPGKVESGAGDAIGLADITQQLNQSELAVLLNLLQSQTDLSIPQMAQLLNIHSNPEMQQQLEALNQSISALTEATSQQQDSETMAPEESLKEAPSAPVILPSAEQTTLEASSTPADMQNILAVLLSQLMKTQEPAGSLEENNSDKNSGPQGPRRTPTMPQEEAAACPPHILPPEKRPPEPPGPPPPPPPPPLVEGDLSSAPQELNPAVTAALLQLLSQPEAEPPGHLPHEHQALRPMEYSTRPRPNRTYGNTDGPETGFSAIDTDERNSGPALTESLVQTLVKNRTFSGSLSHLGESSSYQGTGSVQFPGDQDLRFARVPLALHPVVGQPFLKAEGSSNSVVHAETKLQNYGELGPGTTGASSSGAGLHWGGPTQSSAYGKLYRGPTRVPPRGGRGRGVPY
T1 sequence (O75909 whole entry partner): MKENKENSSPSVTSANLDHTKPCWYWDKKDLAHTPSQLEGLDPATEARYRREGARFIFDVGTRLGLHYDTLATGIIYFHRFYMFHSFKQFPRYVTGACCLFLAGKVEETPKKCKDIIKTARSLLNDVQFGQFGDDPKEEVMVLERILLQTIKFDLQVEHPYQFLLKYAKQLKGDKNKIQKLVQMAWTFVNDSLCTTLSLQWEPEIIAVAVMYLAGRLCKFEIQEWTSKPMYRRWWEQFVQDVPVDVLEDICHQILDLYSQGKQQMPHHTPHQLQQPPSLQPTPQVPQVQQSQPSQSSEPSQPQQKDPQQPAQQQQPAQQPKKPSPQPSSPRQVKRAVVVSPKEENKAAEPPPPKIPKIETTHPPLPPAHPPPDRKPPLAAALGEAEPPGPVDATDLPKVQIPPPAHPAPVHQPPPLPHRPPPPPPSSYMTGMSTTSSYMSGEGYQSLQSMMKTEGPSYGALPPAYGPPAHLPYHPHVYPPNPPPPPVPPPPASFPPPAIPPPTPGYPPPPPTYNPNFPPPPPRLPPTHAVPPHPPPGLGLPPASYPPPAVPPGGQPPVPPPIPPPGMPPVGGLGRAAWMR
T2 sequence (P06493 whole entry): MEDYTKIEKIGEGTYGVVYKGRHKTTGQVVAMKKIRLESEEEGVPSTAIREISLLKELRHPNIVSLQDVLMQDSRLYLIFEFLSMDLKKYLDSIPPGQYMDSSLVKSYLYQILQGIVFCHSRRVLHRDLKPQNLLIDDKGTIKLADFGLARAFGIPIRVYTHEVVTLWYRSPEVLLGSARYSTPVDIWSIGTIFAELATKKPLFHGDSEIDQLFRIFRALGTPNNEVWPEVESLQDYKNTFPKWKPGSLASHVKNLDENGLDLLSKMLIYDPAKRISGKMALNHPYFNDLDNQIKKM
T2 sequence (P14635 whole entry partner): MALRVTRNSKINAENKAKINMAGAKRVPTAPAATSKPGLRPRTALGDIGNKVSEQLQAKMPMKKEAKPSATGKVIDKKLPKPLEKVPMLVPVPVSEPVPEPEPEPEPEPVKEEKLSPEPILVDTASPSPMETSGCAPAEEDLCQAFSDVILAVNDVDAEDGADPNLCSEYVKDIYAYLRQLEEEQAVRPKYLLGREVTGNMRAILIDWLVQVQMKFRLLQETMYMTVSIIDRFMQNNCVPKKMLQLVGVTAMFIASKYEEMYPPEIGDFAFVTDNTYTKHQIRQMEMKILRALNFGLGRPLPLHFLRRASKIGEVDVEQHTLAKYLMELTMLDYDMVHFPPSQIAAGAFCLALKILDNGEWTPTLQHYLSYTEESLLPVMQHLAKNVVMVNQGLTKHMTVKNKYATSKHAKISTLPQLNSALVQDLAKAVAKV
T3 sequence (P50750 whole entry): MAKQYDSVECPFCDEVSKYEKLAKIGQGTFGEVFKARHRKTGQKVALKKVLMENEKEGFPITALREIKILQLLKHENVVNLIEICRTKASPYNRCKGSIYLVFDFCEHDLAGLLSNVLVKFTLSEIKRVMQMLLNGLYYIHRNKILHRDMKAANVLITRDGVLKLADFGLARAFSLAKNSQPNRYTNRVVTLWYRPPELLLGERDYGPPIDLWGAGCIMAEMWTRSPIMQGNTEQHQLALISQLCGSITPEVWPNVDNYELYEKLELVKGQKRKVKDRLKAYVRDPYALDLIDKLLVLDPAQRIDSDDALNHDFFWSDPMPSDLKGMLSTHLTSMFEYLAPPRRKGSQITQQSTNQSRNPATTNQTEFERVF
T3 sequence (O60563 whole entry partner): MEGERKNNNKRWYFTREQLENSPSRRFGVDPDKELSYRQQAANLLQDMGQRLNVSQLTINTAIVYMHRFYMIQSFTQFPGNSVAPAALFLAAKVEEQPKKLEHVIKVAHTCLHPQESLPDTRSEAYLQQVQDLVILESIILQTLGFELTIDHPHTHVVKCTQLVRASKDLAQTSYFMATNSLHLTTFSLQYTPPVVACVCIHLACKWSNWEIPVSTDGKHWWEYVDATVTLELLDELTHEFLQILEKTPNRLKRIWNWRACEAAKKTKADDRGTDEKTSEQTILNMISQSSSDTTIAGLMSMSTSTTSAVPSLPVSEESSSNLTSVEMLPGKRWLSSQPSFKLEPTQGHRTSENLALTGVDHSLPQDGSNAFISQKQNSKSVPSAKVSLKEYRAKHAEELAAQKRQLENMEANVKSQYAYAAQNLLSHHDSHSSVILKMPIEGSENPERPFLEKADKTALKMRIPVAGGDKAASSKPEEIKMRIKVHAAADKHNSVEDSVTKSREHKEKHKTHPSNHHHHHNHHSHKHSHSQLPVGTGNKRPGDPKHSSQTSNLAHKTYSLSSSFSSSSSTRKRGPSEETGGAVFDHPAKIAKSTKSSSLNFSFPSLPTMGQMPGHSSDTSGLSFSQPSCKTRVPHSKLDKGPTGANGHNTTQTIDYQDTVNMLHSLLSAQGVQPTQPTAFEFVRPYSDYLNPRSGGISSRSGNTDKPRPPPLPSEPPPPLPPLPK

`Cc1cccc(Nc2nc(CC(=O)Nc3ncc(C)s3)cs2)n1` [HQ461] was tested, and the IC50 ([1]; primary AML specimen 03H109) was 883 nM, the IC50 ([1]; primary AML specimen 04H055) was 2010 nM and the IC50 ([1]; primary AML specimen 04H096) was 1220 nM. The IC50 ([1]; primary AML specimen 04H138) was 2260 nM, the IC50 ([1]; primary AML specimen 05H113) was 974 nM and the IC50 ([1]; primary AML specimen 05H149) was 1170 nM. The IC50 ([1]; primary AML specimen 05H193) was 1260 nM, the IC50 ([1]; primary AML specimen 06H088) was 1320 nM and the IC50 ([1]; primary AML specimen 06H117) was 1200 nM. It also gave an IC50 ([1]; primary AML specimen 06H151) of 677 nM, an IC50 ([1]; primary AML specimen 07H003) of 2350 nM and an IC50 ([1]; primary AML specimen 07H131) of 2900 nM. For the same molecule, the IC50 ([1]; primary AML specimen 07H144) was 983 nM, the IC50 ([1]; primary AML specimen 07H155) was 2460 nM and the IC50 ([1]; primary AML specimen 08H018) was 2240 nM. The IC50 ([1]; primary AML specimen 08H021) was 1030 nM, the IC50 ([1]; primary AML specimen 08H056) was 2300 nM and the IC50 ([1]; primary AML specimen 08H063) was 2420 nM. It also gave an IC50 ([1]; primary AML specimen 08H085) of 1050 nM, an IC50 ([1]; primary AML specimen 08H108) of 2180 nM and an IC50 ([1]; primary AML specimen 08H118) of 873 nM. The IC50 ([1]; primary AML specimen 09H016) was 869 nM, the IC50 ([1]; primary AML specimen 09H070) was 2340 nM and the IC50 ([1]; primary AML specimen 10H014) was 529 nM. The IC50 ([1]; primary AML specimen 10H046) was 1050 nM, the IC50 ([1]; primary AML specimen 10H107) was 1400 nM and the IC50 ([1]; primary AML specimen 10H127) was 1920 nM. The IC50 ([1]; primary AML specimen 10H161) was 1220 nM, the IC50 ([1]; primary AML specimen 10H174) was 950 nM and the IC50 ([1]; primary AML specimen 11H008) was 1540 nM. It also gave an IC50 ([1]; primary AML specimen 11H019) of 1320 nM, an IC50 ([1]; primary AML specimen 11H170) of 3060 nM and an IC50 ([1]; primary AML specimen 11H217) of 1690 nM. For the same molecule, the IC50 ([1]; primary AML specimen 11H232) was 1460 nM, the IC50 ([1]; primary AML specimen 12H033) was 2450 nM and the IC50 ([1]; primary AML specimen 12H055) was 1470 nM. It also gave an IC50 ([1]; primary AML specimen 12H148) of 1880 nM, an IC50 ([1]; primary AML specimen 13H053) of 2280 nM and an IC50 ([1]; primary AML specimen 15H045) of 931 nM. The IC50 ([1]; primary AML specimen 17H065) was 1420 nM, the IC50 [2] was 1070 nM and the “MFI of cyclin KeGFP over mCherry” value ([3]; OCI-AML5 G7 clone, 3 h, 10 μM, normalized to DMSO (=100)) was 20.9 and 23.4 and 22.9 and 21.1 and 21.0. For the same molecule, the “% degradation cyclin K-eGFP” value ([3]; cyclin K-eGFP reporter) was 79%, the “in vitro inhibition of CDK12/Cyclin K activity” value ([4]; Log10 (uM) 1.69897, in % (unit assumed)) was 45.8 and 46.66 and 37.27 and the IC50 ([4]; read-out: IC50, in vitro inhibition of CDK12/Cyclin K activity) was > 50000 nM. The “% CDK1 inhibition” value [5] was 0%, the “% CDK9 inhibition” value [6] was 0% and the IC50 ([7]; read-out: IC50, sh CDK1) was 1500 nM and 2300 nM and 2010 nM. For the same molecule, the IC50 ([7]; read-out: IC50, sh CDK2) was 1310 nM and 1750 nM and 2460 nM, the IC50 ([7]; read-out: IC50, sh CDK4) was 1240 nM and 1300 nM and 1980 nM and the IC50 ([7]; read-out: IC50, sh CDK7) was 1090 nM and 1800 nM and 1930 nM. For the same molecule, the IC50 ([7]; read-out: IC50, sh CDK9) was 1110 nM and 1360 nM and 1320 nM, the IC50 ([7]; read-out: IC50, sh Cyclin K) was 429 nM and 562 nM and 546 nM and the IC50 ([7]; read-out: IC50, sh ctrl) was 1070 nM and 1220 nM and 1040 nM. For the same molecule, the Class ([7]; class from shRNA IC50 profile and cyclin K-eGFP degradation) was 1 and the “Ratio shCUL4A/shCTRL” value [8] was 4.25.
